How the values were obtained:
Type in all cases: biochemical
[1] = molecular target: PIM2 (Homo sapiens, UniProt Q9P1W9); assay: KinaseGlo Pim2 ATP depletion assay
Outline: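 Luminescent ATP-depletion read-out of PIM2 phosphorylating BAD peptide (RSRHSSYPAGT-OH). Final conditions: 5 nM PIM2, 4 μM ATP, 10 μM peptide, 2.5% DMSO in 50 mM HEPES pH 7.5, 5 mM MgCl2, 1 mM DTT, 0.05% BSA. Enzyme–peptide preincubated 15 min with compound; reaction run to ~50% ATP depletion.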

[2] = molecular target: T1, PIM3 (Homo sapiens, UniProt Q86V86); assay: KinaseGlo Pim3 ATP depletion assay
Outline: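 Kinase was preincubated 15 min with BAD peptide in HEPES pH 7.5/MgCl2/DTT/BSA before ATP was added. Final concentrations were 40 μM ATP, 100 μM BAD peptide and 2.5% DMSO, with 5 nM enzyme. The reaction ran to ~50% ATP depletion and remaining ATP was read by KinaseGlo Plus luminescence.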

[3] = molecular target: PIM1 (Homo sapiens, UniProt P11309); assay: Pim 1 AlphaScreen assay (high ATP); conditions: read-out: Pim1 IC50
Chain of PIM1 (P11309 whole entry): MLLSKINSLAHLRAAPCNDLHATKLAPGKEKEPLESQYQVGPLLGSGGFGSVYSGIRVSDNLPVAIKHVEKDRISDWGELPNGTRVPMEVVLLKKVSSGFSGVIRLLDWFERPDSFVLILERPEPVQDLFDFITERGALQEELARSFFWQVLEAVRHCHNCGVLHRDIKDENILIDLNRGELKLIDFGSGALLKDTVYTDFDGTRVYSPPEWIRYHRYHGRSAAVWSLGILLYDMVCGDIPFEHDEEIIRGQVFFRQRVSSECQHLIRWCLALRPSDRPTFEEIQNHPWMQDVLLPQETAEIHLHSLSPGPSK
Outline: (§1)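 This is a bead-based AlphaScreen run at high ATP (11-125× Km) with biotin-Bad peptide (100 nM in the substrate mix), in 50 mM Hepes pH 7.5, 5 mM MgCl2, 0.05% BSA, 0.01% Tween-20, 1 mM DTT and 2.5% DMSO final. After ~2 h the reaction was stopped with EDTA. Phospho-peptide was detected overnight with anti-phospho Ser/Thr antibody on Protein A and streptavidin beads, giving IC50.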

[4] = molecular target: T1, PIM3; assay: Pim 3 AlphaScreen assay (high ATP); conditions: read-out: Pim3 IC50
Outline: as §1

Chain of PIM2 (Q9P1W9 whole entry): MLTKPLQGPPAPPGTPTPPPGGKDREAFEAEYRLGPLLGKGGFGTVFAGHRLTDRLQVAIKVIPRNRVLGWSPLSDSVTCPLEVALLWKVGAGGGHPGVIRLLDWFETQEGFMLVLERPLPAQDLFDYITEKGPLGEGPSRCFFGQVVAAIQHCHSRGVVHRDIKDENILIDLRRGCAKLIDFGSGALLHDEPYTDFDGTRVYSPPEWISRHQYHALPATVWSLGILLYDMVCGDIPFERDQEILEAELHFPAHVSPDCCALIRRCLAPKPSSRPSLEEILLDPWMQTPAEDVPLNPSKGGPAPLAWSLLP

Row | IC50 [1] [nM] | IC50 [2] [nM] | IC50 [3] [nM] | IC50 [4] [nM] | SMILES
1 | 254 | 37.3 |  |  | C=C1[C@@H](O)C[C@@H](c2ccncc2NC(=O)c2nc(-c3ccccc3)cnc2N)OC12CC2 [Example 5, 3-amino-N-(4-((5S,7S)-7-hydroxy-8-methylene-4-oxaspiro[2.5]octan-5-yl)pyridin-3-yl)-6-phenylpyrazine-2-carboxamide]
2 | 44 | 3 |  |  | C[C@H]1O[C@@H](c2ccncc2NC(=O)c2nc(-c3ccccc3)ncc2N)C[C@@H](O)[C@]1(C)O [Example 32, 5-amino-N-(4-((2R,4R,5S,6R)-4,5-dihydroxy-5,6-dimethyltetrahydro-2H-pyran-2-yl)pyridin-3-yl)-2-phenylpyrimidine-4-carboxamide]
3 | 8 | 2 |  |  | Nc1ncc(-c2ccccc2)nc1C(=O)Nc1cnccc1[C@H]1C[C@@H](O)[C@H](O)[C@@H](CCl)O1 [Example 36, 3-amino-N-(4-((2R,4R,5S,6S)-6-(chloromethyl)-4,5-dihydroxytetrahydro-2H-pyran-2-yl)pyridin-3-yl)-6-phenylpyrazine-2-carboxamide]
4 | 40 | 4 |  |  | CC[C@H]1O[C@@H](c2ccncc2NC(=O)c2nc(-c3ccccc3)ncc2N)C[C@@H](O)[C@@H]1O [Example 39, 5-amino-N-(4-((2R,4R,5S,6R)-6-ethyl-4,5-dihydroxytetrahydro-2H-pyran-2-yl)pyridin-3-yl)-2-phenylpyrimidine-4-carboxamide]
5 | 276 | 27 |  |  | C[C@H]1O[C@@H](c2ccncc2NC(=O)c2nc(-c3ccccc3)cnc2N)[C@H](F)[C@@H](O)[C@]1(C)O [Example 58, 3-amino-N-(4-((2S,3R,4S,5S,6R)-3-fluoro-4,5-dihydroxy-5,6-dimethyltetrahydro-2H-pyran-2-yl)pyridin-3-yl)-6-phenylpyrazine-2-carboxamide]
6 | 924 | 31 |  |  | C[C@@H]1O[C@H](c2ccncc2NC(=O)c2nc(-c3ccccc3)cnc2N)[C@@H](F)[C@H](O)[C@@]1(C)O [Example 63, 3-amino-N-(4-((2R,3S,4R,5R,6S)-3-fluoro-4,5-dihydroxy-5,6-dimethyltetrahydro-2H-pyran-2-yl)pyridin-3-yl)-6-phenylpyrazine-2-carboxamide]
7 | 33 | 3 |  |  | C[C@H]1O[C@@H](c2ccncc2NC(=O)c2nc(-c3ccccc3)cnc2N)C[C@@H](O)[C@]1(C)O [Example 84, 3-amino-N-(4-((2R,4R,5S,6R)-4,5-dihydroxy-5,6-dimethyltetrahydro-2H-pyran-2-yl)pyridin-3-yl)-6-phenylpyrazine-2-carboxamide]
8 | 164 | 15 |  |  | C[C@@H]1O[C@H](c2ccncc2NC(=O)c2nc(-c3ccccc3)cnc2N)C[C@H](O)[C@@]1(C)O [Example 86, 3-amino-N-(4-((2S,4S,5R,6S)-4,5-dihydroxy-5,6-dimethyltetrahydro-2H-pyran-2-yl)pyridin-3-yl)-6-phenylpyrazine-2-carboxamide]
9 | 3.5 | 2.4 |  |  | CC[C@]1(O)[C@H](O)C[C@H](c2ccncc2NC(=O)c2nc(-c3c(F)cccc3F)ncc2N)O[C@@H]1C [Example 143, 5-amino-2-(2,6-difluorophenyl)-N-(4-((2R,4R,5S,6R)-5-ethyl-4,5-dihydroxy-6-methyltetrahydro-2H-pyran-2-yl)pyridin-3-yl)pyrimidine-4-carboxamide]
10 | 15.7 | 3.6 |  |  | Nc1ncc(-c2ccccc2)nc1C(=O)Nc1cnccc1[C@H]1C[C@@H](O)[C@@]2(O)CCCC[C@H]2O1 [Example 173, 3-amino-N-(4-((2R,4R,4aS,8aR)-4,4a-dihydroxyoctahydro-2H-chromen-2-yl)pyridin-3-yl)-6-phenylpyrazine-2-carboxamide]
11 | 1820 | 202 |  |  | Nc1ncc(-c2ccccc2)nc1C(=O)Nc1cnccc1[C@@H]1C[C@H](O)[C@]2(O)CCCC[C@@H]2O1 [Example 176, 3-amino-N-(4-((2S,4S,4aR,8aS)-4,4a-dihydroxyoctahydro-2H-chromen-2-yl)pyridin-3-yl)-6-phenylpyrazine-2-carboxamide]
12 | 2180 | 124 |  |  | O=C(Nc1cnccc1[C@H]1C[C@@H](O)[C@@]2(O)CCCC[C@H]2O1)c1c[nH]cc(-c2ccccc2)c1=O [Example 178, N-(4-((2R,4R,4aS,8aR)-4,4a-dihydroxyoctahydro-2H-chromen-2-yl)pyridin-3-yl)-4-oxo-5-phenyl-1,4-dihydropyridine-3-carboxamide]
13 | 3190 | 610 |  |  | Nc1ncc(-c2ccccc2)nc1C(=O)Nc1cnccc1[C@@H]1C[C@H](O)[C@]2(O)CCC[C@@H]2O1 [Example 186, 3-amino-N-(4-((2S,4S,4aR,7aS)-4,4a-dihydroxyoctahydrocyclopenta[b]pyran-2-yl)pyridin-3-yl)-6-phenylpyrazine-2-carboxamide]
14 | 12.1 | 3.2 |  |  | Nc1ncc(-c2ccccc2)nc1C(=O)Nc1cnccc1[C@H]1C[C@@H](O)[C@@]2(O)CCC[C@H]2O1 [Example 195, 3-amino-N-(4-((2R,4R,4aS,7aR)-4,4a-dihydroxyoctahydrocyclopenta[b]pyran-2-yl)pyridin-3-yl)-6-phenylpyrazine-2-carboxamide]
15 | 10.8 | 3.6 |  |  | O=C1CC[C@H]2O[C@@H](c3ccncc3NC(=O)c3ccc(F)c(-c4c(F)cccc4F)n3)C[C@@H](O)[C@@H]2N1 [Example 196, 6-(2,6-difluorophenyl)-5-fluoro-N-(4-((2R,4R,4aS,8aR)-4-hydroxy-6-oxooctahydro-2H-pyrano[3,2-b]pyridin-2-yl)pyridin-3-yl)picolinamide]
16 | 2.4 | 2.3 |  |  | N[C@@H]1C[C@H](c2ccncc2NC(=O)c2ccc(F)c(-c3c(F)cccc3F)n2)O[C@@H]2CCC[C@]12O [Example 210, N-(4-((2R,4R,4aS,7aR)-4-amino-4a-hydroxyoctahydrocyclopenta[b]pyran-2-yl)pyridin-3-yl)-6-(2,6-difluorophenyl)-5-fluoropicolinamide]
17 | 6.3 | 5.8 |  |  | Nc1cnc(-c2c(F)cccc2F)nc1C(=O)Nc1cnccc1[C@H]1C[C@@H](N)[C@@]2(O)CCC[C@H]2O1 [Example 213, 5-amino-N-(4-((2R,4R,4aS,7aR)-4-amino-4a-hydroxyoctahydrocyclopenta[b]pyran-2-yl)pyridin-3-yl)-2-(2,6-difluorophenyl)pyrimidine-4-carboxamide]
18 |  |  | 0.09 | 1.4 | C[C@H]1O[C@@H](c2ccncc2NC(=O)c2ccc(F)c(-c3c(F)cccc3F)n2)C[C@@H](N)[C@]1(C)O [Example 219, N-(4-((2R,4R,5S,6R)-4-amino-5-hydroxy-5,6-dimethyltetrahydro-2H-pyran-2-yl)pyridin-3-yl)-6-(2,6-difluorophenyl)-5-fluoropicolinamide]
19 |  |  | 0.1 | 4.1 | N[C@@H]1C[C@H](c2ccncc2NC(=O)c2ccc(F)c(-c3c(F)cccc3F)n2)O[C@@H]2CCC[C@H]12 [Example 224, N-(4-((2R,4R,4aR,7aR)-4-aminooctahydrocyclopenta[b]pyran-2-yl)pyridin-3-yl)-6-(2,6-difluorophenyl)-5-fluoropicolinamide]
20 |  |  | 6.83 | 482 | N[C@H]1C[C@@H](c2ccncc2NC(=O)c2csc(-c3c(F)cccc3F)n2)O[C@H]2CCC[C@H]21 [Example 230, N-(4-((2S,4S,4aS,7aS)-4-aminooctahydrocyclopenta[b]pyran-2-yl)pyridin-3-yl)-2-(2,6-difluorophenyl)thiazole-4-carboxamide]
21 |  |  | 0.08 | 0.6 | Nc1cc(F)c(-c2c(F)cccc2F)nc1C(=O)Nc1cnccc1[C@H]1C[C@@H](N)[C@@]2(O)CCCC[C@H]2O1 [Example 238, 3-amino-N-(4-((2R,4R,4aS,8aR)-4-amino-4a-hydroxyoctahydro-2H-chromen-2-yl)pyridin-3-yl)-6-(2,6-difluorophenyl)-5-fluoropicolinamide]
22 |  |  | 0.04 | 0.8 | COc1cc(F)c(-c2nc(C(=O)Nc3cnccc3[C@H]3C[C@@H](N)[C@](C)(O)[C@@H](C)O3)ccc2F)c(F)c1 [Example 242, N-(4-((2R,4R,5S,6R)-4-amino-5-hydroxy-5,6-dimethyltetrahydro-2H-pyran-2-yl)pyridin-3-yl)-6-(2,6-difluoro-4-methoxyphenyl)-5-fluoropicolinamide]
